# In patent publication US12661415B2, “Isoindolinone compounds and imaging agents for imaging Huntingtin protein” (CHDI Foundation, Inc., priority 2021, dated 2026):
# Entries after “also recorded” stand apart in the source; their conditions may differ.
# Legend:
# mHTT aggregates [1] = molecular target: mHTT aggregates (Mus musculus, UniProt P42859); assay: In situ autoradiography (ARG) saturation binding, HOM zQ175 HD mouse model brain sections; conditions: for Bmax: 12-month-old HOM zQ175, tritium-labeled radioligand
# Chain of mHTT aggregates (Mus musculus, UniProt P42859) (P42859 whole entry): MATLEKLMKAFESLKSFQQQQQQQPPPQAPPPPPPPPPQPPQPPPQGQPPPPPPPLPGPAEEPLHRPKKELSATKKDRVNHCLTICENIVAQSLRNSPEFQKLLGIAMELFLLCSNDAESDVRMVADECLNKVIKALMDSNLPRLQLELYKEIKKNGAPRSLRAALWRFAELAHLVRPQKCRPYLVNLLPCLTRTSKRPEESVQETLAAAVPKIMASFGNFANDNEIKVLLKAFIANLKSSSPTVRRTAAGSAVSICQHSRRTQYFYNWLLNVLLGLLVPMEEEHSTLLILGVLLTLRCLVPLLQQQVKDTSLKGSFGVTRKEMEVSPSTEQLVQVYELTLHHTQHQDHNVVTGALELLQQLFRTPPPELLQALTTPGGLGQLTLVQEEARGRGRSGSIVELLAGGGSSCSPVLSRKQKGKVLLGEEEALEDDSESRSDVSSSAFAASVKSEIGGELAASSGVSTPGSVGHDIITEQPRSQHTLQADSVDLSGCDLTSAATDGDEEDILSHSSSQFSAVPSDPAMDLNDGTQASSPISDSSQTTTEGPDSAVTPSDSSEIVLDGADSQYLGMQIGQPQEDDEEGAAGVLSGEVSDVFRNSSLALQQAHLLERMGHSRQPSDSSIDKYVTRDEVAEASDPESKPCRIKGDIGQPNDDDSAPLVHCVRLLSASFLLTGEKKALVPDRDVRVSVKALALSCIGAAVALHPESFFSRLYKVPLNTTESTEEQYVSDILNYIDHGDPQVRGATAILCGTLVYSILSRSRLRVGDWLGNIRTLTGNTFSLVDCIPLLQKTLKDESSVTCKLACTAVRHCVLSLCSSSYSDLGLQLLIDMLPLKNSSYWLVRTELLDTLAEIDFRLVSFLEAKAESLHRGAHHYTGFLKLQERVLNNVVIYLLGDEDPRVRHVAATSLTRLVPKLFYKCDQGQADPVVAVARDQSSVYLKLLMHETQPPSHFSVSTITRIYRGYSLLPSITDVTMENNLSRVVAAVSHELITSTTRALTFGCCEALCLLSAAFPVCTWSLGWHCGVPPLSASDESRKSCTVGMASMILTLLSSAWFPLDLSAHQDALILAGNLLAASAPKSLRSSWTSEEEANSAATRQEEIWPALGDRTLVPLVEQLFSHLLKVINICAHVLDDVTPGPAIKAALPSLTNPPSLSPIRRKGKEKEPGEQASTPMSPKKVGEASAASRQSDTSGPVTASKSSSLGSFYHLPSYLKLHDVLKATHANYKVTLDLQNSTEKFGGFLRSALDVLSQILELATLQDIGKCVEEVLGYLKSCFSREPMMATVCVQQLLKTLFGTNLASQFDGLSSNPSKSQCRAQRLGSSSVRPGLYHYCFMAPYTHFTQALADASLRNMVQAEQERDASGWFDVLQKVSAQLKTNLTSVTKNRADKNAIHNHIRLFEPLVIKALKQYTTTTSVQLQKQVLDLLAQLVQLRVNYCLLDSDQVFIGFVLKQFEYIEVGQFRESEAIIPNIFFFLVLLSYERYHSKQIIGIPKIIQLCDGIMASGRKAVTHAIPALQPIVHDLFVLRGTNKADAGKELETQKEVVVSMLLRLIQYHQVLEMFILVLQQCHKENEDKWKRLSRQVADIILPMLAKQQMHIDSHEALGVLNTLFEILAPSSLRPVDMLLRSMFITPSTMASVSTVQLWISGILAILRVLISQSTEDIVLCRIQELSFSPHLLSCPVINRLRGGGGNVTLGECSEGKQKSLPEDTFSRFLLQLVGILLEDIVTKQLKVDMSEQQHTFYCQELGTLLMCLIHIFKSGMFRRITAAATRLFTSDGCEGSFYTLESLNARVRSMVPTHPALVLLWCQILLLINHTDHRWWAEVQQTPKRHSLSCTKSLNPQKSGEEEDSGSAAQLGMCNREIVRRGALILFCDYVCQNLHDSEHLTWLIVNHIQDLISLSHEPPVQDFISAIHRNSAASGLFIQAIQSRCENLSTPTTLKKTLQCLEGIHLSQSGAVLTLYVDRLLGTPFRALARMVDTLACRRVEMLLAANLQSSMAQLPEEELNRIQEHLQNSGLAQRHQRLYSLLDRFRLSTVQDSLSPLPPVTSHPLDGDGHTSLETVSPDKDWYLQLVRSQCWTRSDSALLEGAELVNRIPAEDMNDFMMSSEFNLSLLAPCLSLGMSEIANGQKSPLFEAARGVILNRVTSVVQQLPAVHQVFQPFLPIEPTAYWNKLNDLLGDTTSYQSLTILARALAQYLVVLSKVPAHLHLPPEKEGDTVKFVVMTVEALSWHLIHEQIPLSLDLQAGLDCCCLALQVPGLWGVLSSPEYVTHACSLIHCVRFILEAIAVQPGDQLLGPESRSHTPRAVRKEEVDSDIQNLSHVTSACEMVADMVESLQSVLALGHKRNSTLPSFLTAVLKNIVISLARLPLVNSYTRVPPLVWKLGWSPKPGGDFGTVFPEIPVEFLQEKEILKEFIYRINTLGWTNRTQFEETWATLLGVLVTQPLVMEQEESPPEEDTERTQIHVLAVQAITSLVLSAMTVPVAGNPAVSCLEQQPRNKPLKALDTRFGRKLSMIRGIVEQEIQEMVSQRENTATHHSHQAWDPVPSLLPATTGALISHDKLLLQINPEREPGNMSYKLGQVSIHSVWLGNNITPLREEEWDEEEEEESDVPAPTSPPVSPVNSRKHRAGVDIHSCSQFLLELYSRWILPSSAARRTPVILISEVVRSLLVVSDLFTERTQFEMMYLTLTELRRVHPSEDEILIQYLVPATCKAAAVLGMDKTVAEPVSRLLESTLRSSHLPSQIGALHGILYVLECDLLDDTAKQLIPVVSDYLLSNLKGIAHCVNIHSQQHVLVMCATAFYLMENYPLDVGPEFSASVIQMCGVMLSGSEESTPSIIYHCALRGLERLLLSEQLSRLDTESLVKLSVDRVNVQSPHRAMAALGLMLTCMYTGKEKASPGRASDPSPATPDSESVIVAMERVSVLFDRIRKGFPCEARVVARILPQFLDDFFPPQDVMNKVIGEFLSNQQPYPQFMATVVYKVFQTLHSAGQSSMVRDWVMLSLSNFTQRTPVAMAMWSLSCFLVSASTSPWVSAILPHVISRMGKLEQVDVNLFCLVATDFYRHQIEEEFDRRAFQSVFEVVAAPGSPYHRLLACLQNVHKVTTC
# Description: In situ autoradiography (ARG) was used to investigate the pharmacological binding characteristics of a tritium-labeled Compound 1-6 (“[^3H]-Compound 1-6”) in the HD mouse model 12-month-old HOM zQ175 and human post-mortem brains from healthy and HD gene-expanded carriers ([…]); specificity of binding was explored by including samples from Alzheimer's disease (AD) patients, which contain other pathological aggregates (e.g., Abeta-containing plaques and phosphor-Tau-expressing tangles). Saturation binding experiments were performed in coronal brain sections; [^3H]-Compound 1-6 binding was quantified by densitometric analysis and specific binding was determined in cortex (CTX). Affinity (KD) and maximum number of binding sites (Bmax) were determined for each region of interest (ROI). At the appropriate ages, HD and WT mice of the different strains were sacrificed by cervical dislocation, and the brains, including cerebellum, were dissected and washed in ice cold PBS. Subsequently, the brains were patted dry on paper towels and transferred into a 6-well plate filled with isopentane that was cooled to a temperature between -30° C. and -40° C. The frozen brains were stored at -80° C. until sectioning. The non-fixed and non-embedded frozen brains were sectioned by using a cryostat at -18° C. Thereby, serial coronal tissue sections of 20 μm thickness were mounted on superfrost slides and dried at room temperature for approximately 90 minutes. The slides were stored at -80° C. until the different experiments were conducted, but not longer than 3 weeks. A similar procedure was conducted with fresh-frozen human post-mortem brain blocks (healthy subjects {CTRL}, Huntingon's disease {HD}, and Alzheimer's disease {AD}). The appropriate number of slides containing the respective tissue sections were acclimated to room temperature for 30 minutes. The slides were then pre-incubated by immersion into 40 mL assay buffer for 20 minutes at room temperature. […] Within each brain section, regions of interest (ROI) were defined for STR, CTX, and HPC by using appropriate sample tools, and the software calculated density measures from the gray level values of all pixels within a defined ROI (Molecular dynamics counts per unit area, MDC/mm^2). Densitometric calibration related the optical densities to known concentrations of radioactivity from the calibrated tritium standards (fmol/mg tissue) and mean values were calculated for each ROI of the individual brains. Total binding (TB) and non-specific binding (NSB) of the radioligand were quantified, and specific binding (SB) was derived by subtracting NSB from TB (SB=TB-NSB) for each brain and ROI, respectively. Subsequently, the group mean±standard deviation (SD) was calculated for each ROI and experimental condition. […]
# mHTT aggregates [2] = assay: In situ autoradiography (ARG) binding, human post-mortem brain sections; conditions: for specific HD binding at 0.3 nM radioligand: human HD brain sections
# Description: In situ autoradiography (ARG) was used to investigate the pharmacological binding characteristics of a tritium-labeled Compound 1-6 (“[^3H]-Compound 1-6”) in the HD mouse model 12-month-old HOM zQ175 and human post-mortem brains from healthy and HD gene-expanded carriers (HDGECs); specificity of binding was explored by including samples from Alzheimer's disease (AD) patients, which contain other pathological aggregates (e.g., Abeta-containing plaques and phosphor-Tau-expressing tangles). Saturation binding experiments were performed in coronal brain sections; [^3H]-Compound 1-6 binding was quantified by densitometric analysis and specific binding was determined in cortex (CTX). Affinity (KD) and maximum number of binding sites (Bmax) were determined for each region of interest (ROI).
# The non-fixed and non-embedded frozen brains were sectioned by using a cryostat at −18° C. Thereby, serial coronal tissue sections of 20 μm thickness were mounted on superfrost slides and dried at room temperature for approximately 90 minutes. The slides were stored at −80° C. until the different experiments were conducted, but not longer than 3 weeks. A similar procedure was conducted with fresh-frozen human post-mortem brain blocks (healthy subjects {CTRL}, Huntingon's disease {HD}, and Alzheimer's disease {AD}).
# The appropriate number of slides containing the respective tissue sections were acclimated to room temperature for 30 minutes. The slides were then pre-incubated by immersion into 40 mL assay buffer for 20 minutes at room temperature. Following this pre-incubation step, one slide per animal was incubated by immersion into 30 mL of the 10 nM, 3 nM, 1 nM, 0.3 nM, 0.1 nM, 0.03 nM, 0.01 nM, or 0.003 nM Compound 1-6 solutions and one slide was incubated by immersion into 30 mL of 10 nM, 3 nM, 1 nM, 0.3 nM, 0.1 nM, 0.03 nM, 0.01 nM, or 0.003 nM [^3H]-Compound 1-6, plus 10 μM unlabeled Compound 1-6 solutions for 60 minutes at room temperature, respectively. A similar paradigm was performed with tritium-labeled Comparative Compound 3 (“[^3H]-Comparative Compound 3”) and tritium-labeled Comparative Compound 4 (“[^3H]-Comparative Compound 4”). Structures of these comparative compounds and compound 1-6 are shown below.
# Afterwards, the slides were washed three times for 10 minutes with 200 mL of ice cold washing buffer at 4° C. and dipped for three seconds in ice cold distilled water to remove buffer salts. The slides were dried for three hours at 30° C. and exposed for 96 hours to Fuji BAS-TR 2015 tritium phosphor screens together with the calibrated tritium standards ART 0123C and ART 0123B. Stored radiation energy on the screen was scanned using the phosphorimager Typhoon FLA 7000.
# Densitometric data analysis was performed using the MCID Analysis 7.1 software (Interfocus Imaging Ltd.). Within each brain section, regions of interest (ROI) were defined for STR, CTX, and HPC by using appropriate sample tools, and the software calculated density measures from the gray level values of all pixels within a defined ROI (Molecular dynamics counts per unit area, MDC/mm^2). Densitometric calibration related the optical densities to known concentrations of radioactivity from the calibrated tritium standards (fmol/mg tissue) and mean values were calculated for each ROI of the individual brains. Total binding (TB) and non-specific binding (NSB) of the radioligand were quantified, and specific binding (SB) was derived by subtracting NSB from TB (SB=TB−NSB) for each brain and ROI, respectively. Subsequently, the group mean±standard deviation (SD) was calculated for each ROI and experimental condition. The data were fitted to one-site binding equation using non-linear regression method in GraphPad Prism Software.
smiles,measurement,setting,value
COc1ccc(COc2ccc3c(c2)CN(c2ccc(=O)n(C)n2)C3=O)nc1 [[^3H]-Compound 1-6],binding to WT brain sections,"mHTT aggregates [1]; WT mouse brain sections, only detectable above LLoQ (0.5 fmol/mg tissue) at 3 nM and 10 nM",minor
same,Bmax (concentration of specific binding sites),"mHTT aggregates [1]; cortex, 12-month-old HOM zQ175",448.6 fmol/mg tissue
same,Bmax,mHTT aggregates [1]; cortex,448 fmol/mg
same,"specific binding, AD patients",mHTT aggregates [2]; cortex brain sections from AD patients,0.1±0.0 fmol/mg tissue
same,"specific binding, HD donors",mHTT aggregates [2]; frontal cortical sections from HD donors,0.8±0.2 fmol/mg tissue
same,"specific binding, CTRL tissue","mHTT aggregates [2]; frontal cortical sections, healthy subjects (CTRL)",0.0±0.0 fmol/mg tissue
same,specific HD binding at 0.3 nM radioligand,mHTT aggregates [2],significant specific HD binding was detectable; also recorded: binds selectively to human HD brain sections
same,binding to healthy control or Alzheimer's disease brain sections,mHTT aggregates [2]; human post-mortem brain sections,little to no binding
same,binding density to juvenile HD brain,mHTT aggregates [2]; juvenile HD sample (one case) vs adult-onset HD brains,highest binding density
same,white matter binding,"mHTT aggregates [2]; post-mortem human brain, white matter",≤ 0.5 fmol/mg tissue
"COc1ccc(NC(=O)c2ccn3c(n2)nc2ccccc23)cn1 [[^3H]-Comparative Compound 3, reference compound]",Bmax,mHTT aggregates [1]; cortex,169 fmol/mg
same,specific HD binding at 0.3 nM radioligand,mHTT aggregates [2],no HD binding was detectable; also recorded: failed to reveal HD binding
